Laboratory results published in PubChem BioAssay (NCI).
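Five concentrations, 48 hours, 96-well plates. At the GI50, growth is halved. TGI is the concentration that stops growth completely.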

Assays:
Experiment in all cases: NCI-60 cell line screen, 48 h
[1] = tested on: OVCAR-8 ovarian
[2] = tested on: MDA-MB-231 breast
[3] = tested on: UACC-62 melanoma
[4] = tested on: M14 melanoma
[5] = tested on: LOX IMVI melanoma
[6] = tested on: MDA-MB-435
[7] = tested on: SK-MEL-5 melanoma
[8] = tested on: A498 renal
[9] = tested on: SNB-19 CNS
[10] = tested on: BT-549 breast

SMILES: C#Cc1nc2ccccc2c(=O)[nH]1
- GI50 [1]: 0.897 µM
- TGI [1]: 8.19 µM
- GI50 [2]: 0.318 µM
- TGI [2]: 1.49 µM
- GI50 [3]: 0.286 µM
- TGI [3]: 1.03 µM
- GI50 [4]: 1.07 µM
- TGI [4]: 3.06 µM
- GI50 [5]: 0.168 µM
- TGI [5]: 0.315 µM
- GI50 [6]: 0.51 µM
- TGI [6]: 2.13 µM
- GI50 [7]: 0.633 µM
- TGI [7]: 2.01 µM
- GI50 [8]: 1.58 µM
- TGI [8]: 3.26 µM
- GI50 [9]: 4.19 µM
- TGI [9]: 18 µM
- GI50 [10]: 0.222 µM
- TGI [10]: 0.422 µM

SMILES: Cc1nc(Nc2ccccn2)sc1C(=O)/C=C/c1ccc(Cl)cc1
- GI50 [1]: 0.472 µM
- TGI [1]: > 100 µM
- GI50 [2]: 0.366 µM
- TGI [2]: 3.58 µM
- GI50 [3]: 0.631 µM
- TGI [3]: 49.8 µM
- GI50 [4]: 0.342 µM
- TGI [4]: > 67.1 µM
- GI50 [5]: 0.458 µM
- TGI [5]: > 40.8 µM
- GI50 [6]: 0.201 µM
- TGI [6]: 0.515 µM
- GI50 [7]: 0.339 µM
- TGI [7]: 1.43 µM
- GI50 [8]: 0.143 µM
- TGI [8]: 0.626 µM
- GI50 [9]: 0.556 µM
- TGI [9]: > 100 µM
- GI50 [10]: 0.344 µM
- TGI [10]: 8.64 µM

SMILES: Cn1cc(-c2ccc3nnc(Sc4ccc5ncccc5c4)n3n2)cn1
- GI50 [1]: 66.7 µM
- TGI [1]: > 100 µM
- GI50 [2]: 24.4 µM
- TGI [2]: 96.9 µM
- GI50 [3]: > 100 µM
- TGI [3]: > 100 µM
- GI50 [4]: > 100 µM
- TGI [4]: > 100 µM
- GI50 [5]: 57.8 µM
- TGI [5]: > 100 µM
- GI50 [6]: > 100 µM
- TGI [6]: > 100 µM
- GI50 [7]: > 74.3 µM
- TGI [7]: > 100 µM
- GI50 [8]: > 23 µM
- TGI [8]: > 93.1 µM
- GI50 [9]: 47.3 µM
- TGI [9]: > 100 µM
- GI50 [10]: 48.7 µM
- TGI [10]: > 100 µM

SMILES: C=C1CCC2(C#N)[C@H]3[C@H](CC[C@@H]2C)[C@@H](C)C[C@@H](CC(C)(C)NC(=O)CN2CCC2=O)[C@H]13 (stereo partly drawn)
- GI50 [1]: 4.94 µM
- TGI [1]: 38.1 µM
- GI50 [2]: 7.97 µM
- TGI [2]: 44.3 µM
- GI50 [3]: 6.54 µM
- TGI [3]: 20.1 µM
- GI50 [4]: 4.56 µM
- TGI [4]: 17.8 µM
- GI50 [5]: 6.17 µM
- TGI [5]: 19.7 µM
- GI50 [6]: 6.19 µM
- TGI [6]: 23.8 µM
- GI50 [7]: 4.24 µM
- TGI [7]: 16.2 µM
- GI50 [8]: 9.03 µM
- TGI [8]: 53.1 µM
- GI50 [9]: 9.58 µM
- TGI [9]: 48.4 µM
- GI50 [10]: 2.96 µM
- TGI [10]: 17.3 µM

SMILES: O=C(Nn1c(-c2ccccc2)nc2ccccc2c1=O)c1ccccc1O
- TGI [1]: > 100 µM
- TGI [2]: > 100 µM
- TGI [3]: 77.2 µM
- TGI [4]: > 100 µM
- TGI [5]: > 100 µM
- TGI [6]: > 100 µM
- TGI [7]: 84.3 µM
- TGI [8]: > 100 µM
- TGI [9]: > 100 µM
- TGI [10]: > 100 µM

SMILES: O=C1CCC(N2C(=O)c3ccccc3C2=O)C(=O)N1 (stereo not drawn)
- TGI [1]: > 100 µM
- GI50 [2]: > 100 µM
- TGI [2]: > 100 µM
- TGI [3]: > 100 µM
- TGI [4]: > 100 µM
- GI50 [5]: > 100 µM
- TGI [5]: > 100 µM
- TGI [6]: > 100 µM
- TGI [7]: > 100 µM
- GI50 [8]: > 100 µM
- TGI [8]: > 100 µM
- TGI [9]: > 100 µM
- TGI [10]: > 100 µM

SMILES: CN(C)c1nc2ccccc2c2c1c1c(n2Cc2ccccc2)-c2ccccc2C1=O
- GI50 [1]: > 100 µM
- TGI [1]: > 100 µM
- GI50 [2]: > 100 µM
- TGI [2]: > 100 µM
- GI50 [3]: > 100 µM
- TGI [3]: > 100 µM
- GI50 [4]: > 100 µM
- TGI [4]: > 100 µM
- GI50 [5]: > 100 µM
- TGI [5]: > 100 µM
- GI50 [6]: > 100 µM
- TGI [6]: > 100 µM
- GI50 [7]: 39.1 µM
- TGI [7]: > 100 µM
- GI50 [8]: > 100 µM
- TGI [8]: > 100 µM
- GI50 [9]: > 100 µM
- TGI [9]: > 100 µM
- GI50 [10]: > 100 µM
- TGI [10]: > 100 µM

SMILES: CC1=Nc2ccccc2/C1=C\c1c(C)[nH]c2ccccc12
- TGI [1]: 27 µM
- TGI [2]: 33.3 µM
- TGI [3]: 25.1 µM
- TGI [4]: > 100 µM
- TGI [5]: 62.4 µM
- TGI [6]: 26.7 µM
- TGI [7]: 28.1 µM
- TGI [8]: 38 µM
- TGI [9]: 35.5 µM
- TGI [10]: 15.1 µM

SMILES: CC1=Cc2ccc(C)cc2C(=O)C1=O
- TGI [1]: > 73.8 µM
- TGI [2]: 59.6 µM
- TGI [3]: 40.3 µM
- TGI [4]: 10.5 µM
- TGI [5]: 20.7 µM
- TGI [6]: 4.27 µM
- TGI [7]: 42.2 µM
- TGI [8]: 51.6 µM
- TGI [9]: 45.2 µM
- TGI [10]: 49.1 µM

SMILES: C=C1C(=O)OC2CC(C)C3CC(O)OC(OCC)C3(C)CC12 (stereo not drawn)
- TGI [1]: 31.4 µM
- TGI [2]: 34.8 µM
- TGI [3]: > 52.1 µM
- TGI [4]: 28.5 µM
- TGI [5]: 17.4 µM
- TGI [6]: 37.6 µM
- TGI [7]: 31.7 µM
- TGI [8]: > 69.1 µM
- TGI [9]: > 75.5 µM
- TGI [10]: > 58.4 µM

SMILES: Cc1nc(Nc2cccnc2)sc1C(=O)/C=C/c1ccc(Cl)cc1
- GI50 [1]: 3.84 µM
- TGI [1]: > 100 µM
- GI50 [2]: 4.7 µM
- TGI [2]: > 100 µM
- GI50 [3]: 2.32 µM
- TGI [3]: 5.84 µM
- GI50 [4]: 3.13 µM
- TGI [4]: 19.5 µM
- GI50 [5]: 1.83 µM
- TGI [5]: 3.75 µM
- GI50 [6]: 2.26 µM
- TGI [6]: 6.46 µM
- GI50 [7]: 4.59 µM
- TGI [7]: 35.5 µM
- GI50 [8]: 49.5 µM
- TGI [8]: > 100 µM
- GI50 [9]: 2.31 µM
- TGI [9]: 5.99 µM
- GI50 [10]: 2.2 µM
- TGI [10]: 7.22 µM

SMILES: CCN(c1cc(-c2ccc(CN3CCOCC3)cc2)cc(C(=O)NCc2c(C)cc(C)[nH]c2=O)c1C)C1CCOCC1
- GI50 [1]: 37.9 µM
- TGI [1]: > 100 µM
- GI50 [2]: 20.4 µM
- TGI [2]: 44.7 µM
- GI50 [3]: 16 µM
- TGI [3]: 31.6 µM
- GI50 [4]: 19.9 µM
- TGI [4]: 42.3 µM
- GI50 [5]: 15.9 µM
- TGI [5]: 30.3 µM
- GI50 [6]: 17.4 µM
- TGI [6]: 34.6 µM
- GI50 [7]: 16.3 µM
- TGI [7]: 31.7 µM
- GI50 [8]: 9.79 µM
- TGI [8]: 37.2 µM
- GI50 [9]: 37.4 µM
- TGI [9]: > 84.5 µM
- GI50 [10]: 17.3 µM
- TGI [10]: 37.4 µM

SMILES: CSCCCNC(=O)c1ccc2c(c1)/C(=C/c1[nH]c(C)cc1C)C(=O)N2
- GI50 [1]: 1.95 µM
- TGI [1]: > 100 µM
- GI50 [2]: 2.87 µM
- TGI [2]: > 100 µM
- GI50 [3]: 0.687 µM
- TGI [3]: > 100 µM
- GI50 [4]: 0.284 µM
- TGI [4]: > 100 µM
- GI50 [5]: 1.02 µM
- TGI [5]: > 100 µM
- GI50 [6]: 0.856 µM
- TGI [6]: > 100 µM
- GI50 [7]: 1.57 µM
- TGI [7]: > 100 µM
- GI50 [8]: 0.47 µM
- TGI [8]: 2.7 µM
- GI50 [9]: 25.6 µM
- TGI [9]: > 100 µM
- GI50 [10]: 2.7 µM
- TGI [10]: > 100 µM

SMILES: Cc1nc2ccc(NC(=O)CCNC(=O)CCCc3ccc(CC(C(=O)O)C(=O)O)cc3)cc2s1
- GI50 [1]: > 100 µM
- TGI [1]: > 100 µM
- GI50 [2]: > 100 µM
- TGI [2]: > 100 µM
- GI50 [3]: > 100 µM
- TGI [3]: > 100 µM
- GI50 [4]: > 100 µM
- TGI [4]: > 100 µM
- GI50 [5]: > 100 µM
- TGI [5]: > 100 µM
- GI50 [6]: > 100 µM
- TGI [6]: > 100 µM
- GI50 [7]: > 100 µM
- TGI [7]: > 100 µM
- GI50 [8]: > 100 µM
- TGI [8]: > 100 µM
- GI50 [9]: > 100 µM
- TGI [9]: > 100 µM
- GI50 [10]: > 100 µM
- TGI [10]: > 100 µM

SMILES: Cc1c2c(c(C)c3c4c(oc13)CCCC4)C=NCC2
- TGI [1]: 23.1 µM
- TGI [2]: 32.9 µM
- TGI [3]: 29.6 µM
- TGI [4]: 44.5 µM
- TGI [5]: 38.3 µM
- TGI [6]: 29.3 µM
- TGI [7]: 30.8 µM
- TGI [8]: 31.9 µM
- TGI [9]: 53.5 µM
- TGI [10]: 33.7 µM
